The NIST ThermoML archive (doi:10.1016/j.fluid.2004.10.025)
Numbers after ± are expanded uncertainties.

Settings: Liquid

Structure (SMILES)	vapor or sublimation pressure (283.15 K) [kPa]	vapor or sublimation pressure (288.15 K) [kPa]	vapor or sublimation pressure (293.15 K) [kPa]	vapor or sublimation pressure (298.15 K) [kPa]	vapor or sublimation pressure (303.15 K) [kPa]	vapor or sublimation pressure (308.15 K) [kPa]	vapor or sublimation pressure (313.15 K) [kPa]	vapor or sublimation pressure (318.15 K) [kPa]	vapor or sublimation pressure (323.15 K) [kPa]
ClC(Cl)C(Cl)Cl [1,1,2,2-tetrachloroethane]	0.263 ± 0.021	0.373 ± 0.021	0.521 ± 0.022	0.711 ± 0.023	0.98 ± 0.025	1.289 ± 0.028	1.701 ± 0.028	2.236 ± 0.029	2.86 ± 0.03
ClC(Cl)=C(Cl)Cl [tetrachloroethene]	1.023 ± 0.026	1.4 ± 0.027	1.861 ± 0.028	2.462 ± 0.029	3.205 ± 0.031	4.117 ± 0.033	5.253 ± 0.036	6.621 ± 0.039	8.286 ± 0.043
ClC(Cl)(Cl)Cl [tetrachloromethane]	7.514 ± 0.042	9.601 ± 0.047	12.14 ± 0.054	15.22 ± 0.064	18.98 ± 0.076	23.36 ± 0.09	28.53 ± 0.11	34.59 ± 0.13	41.68 ± 0.15
